The values that follow are results of earlier work, collected in US9175008B1, “Prodrugs of anti-platelet agents” (CELLIX BIO PRIVATE LIMITED, priority 2014, dated 2015).

This series has as its system recurrent atherothrombotic events. Particulars: recurrent atherothrombotic events across a wide range of high-risk patients.

As for `CC(=O)Oc1ccccc1C(=O)O` [aspirin], the relative risk reduction result is “approximately 25%”.
